Tested on: P. aeruginosa PAO1 biofilms
Assay: In vitro biofilm staining under flow conditions, injection method
Type: cell-based, Pseudomonas aeruginosa
Settings: 17 μM in channel, 10 min incubation, then flow 3 mL/h for 10-20 min
Description: P. aeruginosa biofilms were grown under flow conditions and observed by fluorescence microscopy in analogy to Ghanbari et al.[66] To this end, P. aeruginosa PAO1 expressing the red fluorescent protein mCherry[56] was diluted to an OD600 nm of 0.1 and injected into the microfluidics device. After a 30-min settling period, biofilms were grown under a constant laminar flow rate of 3 mL/h per channel. Following 48 h of incubation at 30 °C, dense and mature P. aeruginosa PAO1 biofilms were observed, which were then further used for analysis of the imaging probes.
Two different staining methods were evaluated for the imaging of P. aeruginosa PAO1 biofilms: (I) direct injection of the imaging compounds into the flow system or (II) compound supplementation into the medium and gradual accumulation at the biofilm (Figure S18). […] The flow of compounds 17 and 24 and their arrival in the flow cells were monitored using a fluorescence microscope attached to the flow system. […]
Figure 4 Staining of P. aeruginosa PAO1 biofilms under flow following the injection method. […] Pictures of the same aggregates were recorded prior to compound injection (t−10), during a 10 min incubation period without flow (t0) and during the wash period (constant flow, 3 mL/h) at different time points t5, t10, t15, and t20 (5, 10, 15, and 20 min) using a fluorescence microscope. […]

O=C(CCc1ccc(O[C@@H]2O[C@H](CO)[C@H](O)[C@H](O)[C@H]2O)cc1)Nc1ccc(CN(CCc2cn(CCOCCOCCOCCNC(=S)Nc3ccc4c(c3)C(=O)OC43c4ccc(O)cc4Oc4cc(O)ccc43)nn2)Cc2ccc(NC(=O)CCc3ccc(O[C@@H]4O[C@H](CO)[C@H](O)[C@H](O)[C@H]4O)cc3)cc2)cc1 [compound 17]
Retention of fluorescence at biofilm during wash: retained at the P. aeruginosa biofilm aggregates

— PMC11672137, “High-Affinity Lectin Ligands Enable the Detection of Pathogenic Pseudomonas aeruginosa Biofilms: Implications for Diagnostics and Therapy” (JACS Au, 2024)
